Data as given in PMC11879040, “Advancing systemic toxicity risk assessment: Evaluation of a NAM-based toolbox approach” (Toxicological Sciences, 2024).
Like-named read-outs stand apart in the source and are kept apart here.

What was measured:
[1] = system: human; conditions: 7 month human volunteer study; ref [19-22]; cited from earlier work
[2] = system: HepG2 cells; experiment: Cell stress panel (CSP), 24 h, 8 concentrations, BIFROST global PoD; type: cell-based; conditions: HepG2; cell stress panel PoD
Experimental: Compounds were tested using the previously developed cell stress panel ([Hatherell et al. 2020]) and the expanded biomarker panel outlined in Middleton et al. HepG2 cells were treated with all compounds for 24 h across 8 concentrations prior to biomarker analysis. The same plate layout and number of replicates (3 biological and 2 technical) were used as previously for each assay within the panel.

[3] = system: Thyroid hormone receptor alpha, THRA (h); experiment: IPP THRA coactivator recruitment (agonist); type: biochemical, human; conditions: 100 uM; agonist; T3; * denotes assay interference (2-Amino-6-chloro-4-nitrophenol, HC Red 3)
[4] = ref [19-22]; cited from earlier work
[5] = system: Potassium Voltage-Gated Channel Kv non-selective, KCNQ1 (r); experiment: IPP KCNQ1 binding (antagonist radioligand); set-up: species or system rat; conditions: IPP screening at 100 uM; control α-dendrotoxin
[6] = system: Glutamate receptor ionotropic NMDA 1 non-selective, GRIN1 (r)
[7] = system: Sodium channel protein type 5 subunit alpha (site 2), SCN5A (r); type: binding, rat
[8] = system: Gamma-aminobutyric acid receptor subunit alpha-1 BZD site, GABRA1A (r); type: binding, rat
[9] = system: MCF7 cells; experiment: High-throughput transcriptomics (HTTr, TempO-Seq), MCF7, 24 h; type: cell-based, human; conditions: MCF-7; for pod_httr_bifrost PoD: HTTr BIFROST PoD; for podl_path_minbmd PoD: HTTr minimum pathway BMD(L)
Experimental: (§1) HepG2, HepaRG, and MCF7 cells were treated with each compound for 24 h across a dose range of 7 concentrations and lysed using TempO-Seq lysis buffer (BioSpyder Technologies, proprietary kit, see [Middleton et al. 2022] for method details). Sequencing was performed using TempO-Seq (BioClavis) version 2 of the human whole transcriptome panel and analyzed as described previously in Middleton et al.

[10] = system: HepaRG cells; experiment: High-throughput transcriptomics (HTTr, TempO-Seq), HepaRG, 24 h; type: cell-based, human; conditions: HepaRG; for pod_httr_bifrost PoD: HTTr BIFROST PoD; for podl_path_minbmd PoD: HTTr minimum pathway BMD(L)
Experimental: as §1

[11] = human
[12] = system: monkey; conditions: cited from earlier work
[13] = target: T1, Adenosine receptor A2a, ADORA2A (h) (Homo sapiens, UniProt P29274); experiment: IPP ADORA2A binding (agonist radioligand); conditions: IPP screening at 100 uM; control NECA
T1 construct: purchased Eurofins Cerep (SafetyScreen44-based IPP panel)
T1 sequence (P29274 whole entry): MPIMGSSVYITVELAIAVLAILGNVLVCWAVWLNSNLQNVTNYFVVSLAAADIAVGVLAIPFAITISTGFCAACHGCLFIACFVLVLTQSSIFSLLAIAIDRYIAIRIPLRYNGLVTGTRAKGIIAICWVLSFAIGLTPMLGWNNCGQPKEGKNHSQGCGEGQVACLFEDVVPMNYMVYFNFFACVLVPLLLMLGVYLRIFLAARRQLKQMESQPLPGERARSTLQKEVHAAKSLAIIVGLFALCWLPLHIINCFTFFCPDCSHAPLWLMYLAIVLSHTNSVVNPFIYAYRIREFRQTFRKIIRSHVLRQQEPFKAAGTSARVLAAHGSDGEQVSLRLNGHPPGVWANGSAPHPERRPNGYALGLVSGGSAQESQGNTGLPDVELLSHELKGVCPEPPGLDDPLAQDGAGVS

[14] = system: Tubulin (r); experiment: IPP Tubulin binding; set-up: species or system rat; conditions: 100 uM; ligand/control Colchicine
[15] = system: HepG2 cells; experiment: High-throughput transcriptomics (HTTr, TempO-Seq), HepG2, 24 h; type: cell-based, human; conditions: HepG2; for pod_httr_bifrost PoD: HTTr BIFROST PoD; for podl_path_minbmd PoD: HTTr minimum pathway BMD(L)
Experimental: as §1

[16] = Assignment of risk classifications to benchmark chemical-exposure scenarios; conditions: for risk: from table S1
[17] = target: Voltage-dependent L-type Ca2+ channel (dihydropyridine site), CACNA1C (r) (Rattus norvegicus, UniProt P22002); type: binding
Voltage-dependent L-type Ca2+ channel (dihydropyridine site), CACNA1C (r), sequence (P22002 whole entry): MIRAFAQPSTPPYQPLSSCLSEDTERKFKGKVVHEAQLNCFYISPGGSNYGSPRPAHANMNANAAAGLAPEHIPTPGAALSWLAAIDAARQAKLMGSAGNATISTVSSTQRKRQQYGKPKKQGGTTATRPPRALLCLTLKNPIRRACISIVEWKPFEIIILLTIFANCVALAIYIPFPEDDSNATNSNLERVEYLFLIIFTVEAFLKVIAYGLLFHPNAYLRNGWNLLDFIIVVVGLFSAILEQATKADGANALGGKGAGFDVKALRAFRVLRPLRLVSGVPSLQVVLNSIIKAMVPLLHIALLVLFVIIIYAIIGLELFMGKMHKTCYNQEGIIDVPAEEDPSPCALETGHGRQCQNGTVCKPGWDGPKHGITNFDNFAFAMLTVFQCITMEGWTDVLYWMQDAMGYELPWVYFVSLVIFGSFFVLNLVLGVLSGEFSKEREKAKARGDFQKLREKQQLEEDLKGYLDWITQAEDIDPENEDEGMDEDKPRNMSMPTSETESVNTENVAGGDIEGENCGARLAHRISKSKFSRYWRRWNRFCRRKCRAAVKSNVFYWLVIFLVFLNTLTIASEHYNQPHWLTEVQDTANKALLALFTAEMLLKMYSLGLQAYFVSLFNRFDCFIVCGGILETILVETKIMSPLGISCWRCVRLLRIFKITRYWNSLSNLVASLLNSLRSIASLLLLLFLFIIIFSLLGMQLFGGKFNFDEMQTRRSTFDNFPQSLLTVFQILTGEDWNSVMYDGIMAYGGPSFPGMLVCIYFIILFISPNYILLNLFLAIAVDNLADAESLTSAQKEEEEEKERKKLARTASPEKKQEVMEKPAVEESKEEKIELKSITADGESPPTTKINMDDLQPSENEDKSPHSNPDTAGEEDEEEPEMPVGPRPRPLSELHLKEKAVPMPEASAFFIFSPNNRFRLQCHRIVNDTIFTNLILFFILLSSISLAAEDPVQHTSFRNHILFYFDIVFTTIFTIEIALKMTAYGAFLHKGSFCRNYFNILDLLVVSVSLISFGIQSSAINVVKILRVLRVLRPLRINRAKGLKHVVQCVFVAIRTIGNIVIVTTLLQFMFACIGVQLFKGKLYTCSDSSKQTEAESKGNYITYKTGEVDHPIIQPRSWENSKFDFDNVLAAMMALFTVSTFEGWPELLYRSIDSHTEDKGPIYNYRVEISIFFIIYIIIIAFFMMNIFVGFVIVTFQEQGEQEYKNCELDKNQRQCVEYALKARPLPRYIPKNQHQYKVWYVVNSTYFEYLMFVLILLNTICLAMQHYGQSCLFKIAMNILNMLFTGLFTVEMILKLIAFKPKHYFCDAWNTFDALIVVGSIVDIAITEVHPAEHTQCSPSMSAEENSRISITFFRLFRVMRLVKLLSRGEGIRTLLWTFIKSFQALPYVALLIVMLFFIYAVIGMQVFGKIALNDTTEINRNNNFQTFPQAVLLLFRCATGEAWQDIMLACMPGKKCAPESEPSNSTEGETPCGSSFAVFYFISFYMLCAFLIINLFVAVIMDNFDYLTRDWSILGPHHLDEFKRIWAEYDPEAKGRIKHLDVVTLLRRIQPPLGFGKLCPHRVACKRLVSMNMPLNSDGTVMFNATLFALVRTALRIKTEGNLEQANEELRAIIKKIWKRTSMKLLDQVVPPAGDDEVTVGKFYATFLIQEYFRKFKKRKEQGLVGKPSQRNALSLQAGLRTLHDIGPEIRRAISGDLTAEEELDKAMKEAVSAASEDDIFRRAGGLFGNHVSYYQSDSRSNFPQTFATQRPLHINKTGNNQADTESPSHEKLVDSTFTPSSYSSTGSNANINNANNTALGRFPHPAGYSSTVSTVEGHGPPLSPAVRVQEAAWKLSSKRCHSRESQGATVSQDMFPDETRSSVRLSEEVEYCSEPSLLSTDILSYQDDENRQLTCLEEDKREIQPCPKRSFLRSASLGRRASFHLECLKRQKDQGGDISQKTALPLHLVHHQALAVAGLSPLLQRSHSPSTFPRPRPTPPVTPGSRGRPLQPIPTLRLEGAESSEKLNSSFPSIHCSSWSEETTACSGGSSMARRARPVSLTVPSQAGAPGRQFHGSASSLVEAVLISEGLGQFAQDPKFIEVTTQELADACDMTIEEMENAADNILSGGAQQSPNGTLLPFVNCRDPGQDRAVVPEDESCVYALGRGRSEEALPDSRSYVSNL

[18] = per chemical see Peff Reference, cited from earlier work
[19] = skin penetration (PBK input)
[20] = cited from earlier work
[21] = cited from earlier work; remark: listed apart in the source
[22] = hepatic intrinsic clearance (Clint); conditions: PBK input, levels L2/L3; scaled from [10]
[23] = system: 63 targets with known safety liabilities; experiment: In vitro pharmacological profiling (IPP) panel, screening at 10 or 100 µM and dose response, minimum IC50/AC50; type: biochemical; conditions: lowest AC50 across IPP panel (systemic targets); cell_type -; read-out: ipp_lowest_ac50_systemic PoD
[24] = system: rat; conditions: rat; repeat dose toxicity : oral; ref ToxRefDB/Paul-Friedman et al. (2020)/regulatory opinions; cited from earlier work
[25] = intestinal absorption (PBK input); type: in vitro ADME; conditions: levels L2/L3, converted from [36]
[26] = PBK level L2, optimised based on [21] (glutaraldehyde), [23] (HCRed3), [28] (ibuprofen)
[27] = PBK level L3, optimised based on [28]
[28] = IPP screening at 100 uM, control CGS 19755
[29] = IPP screening at 100 uM, control diazepam
[30] = IV 200 mg slow IV (3min), 8 healthy male, validation, ref Martin et al. 1990
[31] = IV 400 mg slow IV (3min), 8 healthy male, validation, ref Martin et al. 1990
[32] = IV 800 mg infusion over five to seven minutes, 12 healthy, calibration, ref Pavliv et al. 2011
[33] = Oral 400 mg tablet, fasted, 18 healthy elderly, validation, ref Albert et al. 1984
[34] = Oral 500 mg ibuprofen lysine tablet (equivalent to 292.6 mg ibuprofen free acid), fasted, 8 healthy male, validation, ref Martin et al. 1990
[35] = Oral 800 mg tablet, fasted, 12 healthy, calibration, ref Pavliv et al. 2011
[36] = Oral 800 mg tablet, fasted, 13 healthy, validation, ref Duxin et al. 2017
[37] = Oral 800 mg tablet, fasted, 18 healthy elderly, validation, ref Albert et al. 1984
[38] = Oral 800 mg tablet, fed, 10 healthy, validation, ref Duxin et al. 2017
[39] = Oral 1200 mg tablet, fasted, 18 healthy elderly, validation, ref Albert et al. 1984

SMILES: O=S(=O)(O)NC1CCCCC1 [Cyclamate, Sodium cyclohexylsulfamate]
- dietary level at which persistent diarrhoea was noted [1]: ≥ 141 mg/kg bw/day
- pod_cell_stress PoD [2]: 480.52 µM
- IPP screening %, Coactivator recruitment [3]: 2.0%
- ADI [4]: 7 mg/kg bw/day
- Specific binding [5]: 0.6%
- Specific binding [6]: -4.4%
- Specific binding [7]: 19.1%
- Specific binding [8]: -8.6%
- responding probes (with CDS > 0.5) [9]: 18
- responding probes (with CDS > 0.5) [10]: 7
- risk [11]: 0
- male monkeys showing testicular effects ([12]; lifetime monkey study, 500 mg/kg bw/day, at 23 years, ref [19-22]): 2/5
- Specific binding [13]: 1.0%
- IPP screening %, Specific binding [14]: 21.0%
- responding probes (with CDS > 0.5) [15]: 22

SMILES: CC(C)Cc1ccc(C(C)C(=O)O)cc1 (stereo not drawn) [Ibuprofen, 2-[4-(2-Methylpropyl)phenyl]propanoic acid]
- risk ([16]; Dermal, 10%, Gel, Exp3): 1
- risk ([16]; Oral, High therapeutic, 1200mg/day, Tablet, Exp1): 1
- risk ([16]; Oral, Low therapeutic, 200mg/day, Tablet, Exp2): 1
- Specific binding [17]: -14.3%
- pod_cell_stress PoD [2]: 8.518 µM
- Peff ([18]; PBK level L2, ref [3],[4],[11]): 5.034 cm/s x E-04
- Peff ([18]; PBK level L3, ref [4],[11]): 5.034 cm/s x E-04
- IPP screening %, Coactivator recruitment [3]: 1.0%
- Diffusivity Dermis [19, 26]: 1.00E-06 cm^2/s
- Diffusivity Stratum Corneum [19, 26]: 1.00E-09 cm^2/s
- Diffusivity Viable Epidermis [19, 26]: 1.00E-06 cm^2/s
- Partition Coefficient Stratum Corneum/Water ([19]; PBK level L2, optimised based on [21] (glutaraldehyde), [23] (HCRed3), [28] (ibuprofen), no reference printed (DEET)): 1500.00
- Partition Coefficient Viable Epidermis/Water ([19]; PBK level L2, optimised based on [21] (glutaraldehyde), [28] (ibuprofen)): 700.00
- Diffusivity Vehicle ([19]; PBK level L2, optimised based on [23] (HCRed3), [28] (ibuprofen)): 1.00E-05 cm^2/s
- Partition Coefficient Vehicle/Water ([19]; PBK level L2, optimised based on [28]): 10.00
- Diffusivity Dermis [19, 27]: 1.00E-06 cm^2/s
- Diffusivity Stratum Corneum [19, 27]: 1.00E-09 cm^2/s
- Diffusivity Vehicle [19, 27]: 1.00E-05 cm^2/s
- Diffusivity Viable Epidermis [19, 27]: 1.00E-06 cm^2/s
- Partition Coefficient Stratum Corneum/Water [19, 27]: 1500.00
- Partition Coefficient Vehicle/Water [19, 27]: 10.00
- Partition Coefficient Viable Epidermis/Water [19, 27]: 700.00
- Specific binding [5]: -8.5%
- Specific binding [6, 28]: 7.2%
- Specific binding [7]: 32.1%
- Specific binding [8, 29]: 5.3%
- pod_httr_bifrost PoD [9]: 42.8965 µM
- podl_path_minbmd PoD [9]: 150.462 µM
- pod_httr_bifrost PoD [10]: 0.1626 µM
- podl_path_minbmd PoD [10]: 8.099 µM
- Fup ([20]; PBK level L2, single value or median, ref [2],[4],[6],[7],[8],[10],[11],[15],[18],[27],[34]): 1.3%
- Fup ([20]; PBK level L3, single value or median, ref [2],[4],[6],[7],[8],[10],[11],[15],[18],[27],[34]): 1.3%
- Reported AUC0-t [21, 30]: 59.96 µg·h/mL
- Reported cmax [21, 30]: 39 µg/mL
- Reported AUC0-t [21, 31]: 117.4 µg·h/mL
- Reported cmax [21, 31]: 79.75 µg/mL
- Reported AUC0-t [21, 32]: 187.4 µg·h/mL
- Reported cmax [21, 32]: 120.2 µg/mL
- Reported AUC0-t [21, 33]: 128 µg·h/mL
- Reported cmax [21, 33]: 32.5 µg/mL
- Reported AUC0-t [21, 34]: 85.59 µg·h/mL
- Reported cmax [21, 34]: 30.32 µg/mL
- Reported AUC0-t [21, 35]: 187.4 µg·h/mL
- Reported cmax [21, 35]: 57.3 µg/mL
- Reported AUC0-t [21, 36]: 252 µg·h/mL
- Reported cmax [21, 36]: 41.52 µg/mL
- Reported AUC0-t [21, 37]: 236.6 µg·h/mL
- Reported cmax [21, 37]: 60.2 µg/mL
- Reported AUC0-t [21, 38]: 223 µg·h/mL
- Reported cmax [21, 38]: 25.22 µg/mL
- Reported AUC0-t [21, 39]: 279.2 µg·h/mL
- Reported cmax [21, 39]: 71.1 µg/mL
- PoD (NOAEL) ([12]; monkey, 52 weeks, ref ToxRefDB/Paul-Friedman et al. (2020)/regulatory opinions): 40 mg/kg bw/day
- IPP screening %, Specific binding [14]: -14.0%
- pod_httr_bifrost PoD [15]: 7.6781 µM
- podl_path_minbmd PoD [15]: 30.2909 µM

SMILES: CC(=O)Nc1ccc(O)cc1 [Paracetamol, N-(4-Hydroxyphenyl)acetamide]
- Risk Classification ([16]; IV 4000 mg/day): High risk
- risk ([16]; IV, High therapeutic, 4g/day, Exp3): 1
- Risk Classification ([16]; Oral 500 mg/day): High risk
- Risk Classification ([16]; Oral 4000 mg/day): High risk
- risk ([16]; Oral, High therapeutic, 4000mg/day, Tablet, Exp1): 1
- risk ([16]; Oral, Low therapeutic, 500mg/day, Tablet, Exp2): 1
- Intrinsic Liver Clearance [22]: 10.79 L/h
- pod_cell_stress PoD [2]: 40.132 µM
- IPP screening %, Coactivator recruitment [3]: 1.0%
- Specific binding [5]: -3.6%
- Specific binding [6, 28]: -4.2%
- Specific binding [7]: 34.9%
- Specific binding [8, 29]: 8.7%
- pod_httr_bifrost PoD [9]: 4.261 µM
- podl_path_minbmd PoD [9]: 184.341 µM
- pod_httr_bifrost PoD [10]: 76.0572 µM
- podl_path_minbmd PoD [10]: 322.442 µM
- AC50 [23]: 39.1 µM
- PoD (LOEL) [24]: 30 mg/kg bw/day
- Fup ([20]; PBK input, level L2, ref [10]): 100%
- Specific binding [13]: 6.7%
- Peff [25]: 3.56 cm/s x E-04
- IPP screening %, Specific binding [14]: -2%
- pod_httr_bifrost PoD [15]: 9.465 µM
- podl_path_minbmd PoD [15]: 262.202 µM
